Results reported in patent US11555026B2, “AHR inhibitors and uses thereof” (Ikena Oncology, Inc., priority 2017, dated 2023).

Molecular target: T1, AHR (UniProt P35869)
T1 sequence (P35869 1-848): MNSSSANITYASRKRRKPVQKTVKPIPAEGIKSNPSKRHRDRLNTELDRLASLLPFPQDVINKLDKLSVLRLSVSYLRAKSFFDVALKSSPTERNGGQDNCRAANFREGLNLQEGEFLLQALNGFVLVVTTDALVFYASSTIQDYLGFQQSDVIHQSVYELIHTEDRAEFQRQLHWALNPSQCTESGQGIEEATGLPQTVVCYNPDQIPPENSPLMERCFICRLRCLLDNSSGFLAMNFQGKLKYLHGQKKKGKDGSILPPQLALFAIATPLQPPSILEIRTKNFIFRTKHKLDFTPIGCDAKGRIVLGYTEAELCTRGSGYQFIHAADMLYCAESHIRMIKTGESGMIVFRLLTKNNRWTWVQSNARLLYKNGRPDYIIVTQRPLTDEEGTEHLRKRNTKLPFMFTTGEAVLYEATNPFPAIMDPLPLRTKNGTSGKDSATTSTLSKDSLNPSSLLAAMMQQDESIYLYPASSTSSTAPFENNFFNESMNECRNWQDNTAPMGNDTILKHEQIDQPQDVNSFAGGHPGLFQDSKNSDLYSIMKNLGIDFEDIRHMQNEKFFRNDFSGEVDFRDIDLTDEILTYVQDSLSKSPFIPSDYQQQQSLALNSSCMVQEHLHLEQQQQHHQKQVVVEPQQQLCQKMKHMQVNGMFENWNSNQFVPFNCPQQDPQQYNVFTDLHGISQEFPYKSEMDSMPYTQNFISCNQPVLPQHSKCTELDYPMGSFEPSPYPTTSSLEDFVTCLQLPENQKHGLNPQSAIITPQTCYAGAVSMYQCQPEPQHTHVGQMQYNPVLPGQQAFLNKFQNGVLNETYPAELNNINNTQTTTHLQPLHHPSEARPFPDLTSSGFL
Assay: DRE-Luciferase Reporter Assay (Example 1A)
Format: cell-based
Parameters: IC50
Settings: concentration which inhibits half of the luciferase activity induced by an AHR activating ligand; murine (Hepa1-6, Hepa-1c1c7) or human (HepG2) DRE-luciferase reporter cells, cell line used not stated
Procedure: AHR binds to Dioxin Responsive Elements (DRE) upstream of genes that it activates. One measure of AHR activity is activation of a reporter gene, such as luciferase, downstream of one or multiple DRE elements. Luciferase activity will reflect activation and inhibition of AHR in the cells expressing his reporter.
Murine Hepa1-6 or Hepa-1c1c7 or other murine cell line with a DRE-luciferase reporter either stably or transiently transfected were plated in media in plates (96-well, 384-well or other plates) and incubated overnight at 37° C. in a CO2 incubator. Likewise, human HepG2 or other human cell line with a DRE-luciferase reporter either stably or transiently transfected were plated in media in plates (96-well, 384-well or other plates) and incubated overnight at 37° C. in a CO2 incubator.
The next day, an AHR activating ligand, such as TCDD, kynurenine, ITE (2-(1H-indole-3-ylcarbonyl)-4-thiazolecarboxylic methyl ester), VAF347, BNF (beta-naphthoflavone), FICZ (6-formylindolo(3,2-b) carbazole or other AHR ligands, was added with or without AHR antagonist.
Cells were incubated for 4, 15 or 24 hours or another time point and then lysed for determination of luciferase activity as a read-out of the AHR activation or inhibition. Luciferase was measured with a commercial kit such as the Promega Luciferase kit or any kit or reagents that provide the luciferin substrate for measuring luciferase activity. The level of luciferase with only activating ligand added was the maximum signal while the luciferase with no ligand was the minimum signal. IC50 values were determined as the concentration which inhibits half of the luciferase activity.

| Structure (SMILES) | IC50 |
| --- | --- |
| Cc1cc(C(=O)N2CCCc3ccccc32)ccc1NC(=O)c1ccnn1C [I-1] | > 1500 nM |
| Cc1cc(C(=O)N2CCc3ccccc32)ccc1NC(=O)c1ccnn1C [I-2] | > 1500 nM |
| Cc1cc(C(=O)n2ccc3ccccc32)ccc1NC(=O)c1ccnn1C [I-4] | > 1500 nM |
| Cc1ccccc1/N=N/c1ccc(NC(=O)c2ccccn2)c(C)c1 [I-14] | > 1500 nM |
| Cc1cc(N)ccc1NC(=O)c1ccnn1C [I-16] | > 1500 nM |
| Cc1cc(/C=C/c2cccnc2C)ccc1NC(=O)c1ccnn1C [I-19] | > 1500 nM |
| Cn1nccc1C(=O)Nc1ccc2nc(-c3ccccc3)ccc2c1 [I-22, 2-Methyl-N-(2-phenyl-6-quinolyl)pyrazole-3-carboxamide] | < 500 nM |
| Cc1ccccc1/N=N/c1ccc(C(=O)Nc2ccnn2C)c(C)c1 [I-25, 2-Methyl-N-(2-methylpyrazol-3-yl)-4-[(E)-o-tolylazo]benzamide] | < 500 nM |
| Cc1ccccc1/C=C/c1ccc(NC(=O)c2ccnn2C)cc1 [I-27, 2-Methyl-N-[4-[(E)-2-(o-tolyl)vinyl]phenyl]pyrazole-3-carboxamide] | 500 to 1000 nM |
| Cc1ccccc1-c1ccc2cc(NC(=O)c3ccnn3C)ccc2n1 [I-30] | > 1500 nM |
| Cc1cc(-c2cc3ccccc3cn2)ccc1NC(=O)c1ccnn1C [I-31] | > 1500 nM |
| Cc1ccccc1/C=C/c1ccc(NC(=O)c2ccn[nH]2)c(C)c1 [I-36] | > 1500 nM |
| Cc1ccccc1/C=C/c1ccc(NC(=O)c2cncn2C)c(C)c1 [I-37] | > 1500 nM |

Other lines, results leading:

| IC50 | Structure (SMILES) |
| --- | --- |
| > 1500 nM | Cc1cc(C(=O)Nc2ncccc2C)ccc1NC(=O)c1ccnn1C [I-3] |
| < 500 nM | Cc1ccccc1/C=C/c1ccc(NC(=O)c2ccnn2C)c(C)c1 [I-5, (E)-1-methyl-N-(2-methyl-4-(2-methylstyryl)phenyl)-1H-pyrazole-5-carboxamide] |
| > 1500 nM | Cc1ccccc1CCc1ccc(NC(=O)c2ccnn2C)c(C)c1 [I-6, 1-methyl-N-(2-methyl-4-(2-methylphenethyl)phenyl)-1H-pyrazole-5-carboxamide] |
| > 1500 nM | Cc1ccccc1/C=C\c1ccc(NC(=O)c2ccnn2C)c(C)c1 [I-7, (Z)-1-methyl-N-(2-methyl-4-(2-methylstyryl)phenyl)-1H-pyrazole-5-carboxamide] |
| > 1500 nM | Cc1ccccc1NC(=O)c1ccc(NC(=O)c2ccnn2C)c(C)c1 [I-8, 1-methyl-N-(2-methyl-4-(o-tolylcarbamoyl)phenyl)-1H-pyrazole-5-carboxamide] |
| > 1500 nM | Cc1cc(NC(=O)c2ccccc2C)ccc1NC(=O)c1ccnn1C [I-9, 1-methyl-N-(2-methyl-4-(2-methylbenzamido)phenyl)-1H-pyrazole-5-carboxamide] |
| > 1500 nM | Cc1ccccc1CNc1ccc(NC(=O)c2ccnn2C)c(C)c1 [I-10, 1-methyl-N-(2-methyl-4-((2-methylbenzyl)amino)phenyl)-1H-pyrazole-5-carboxamide] |
| > 1500 nM | Cc1ccccc1NCc1ccc(NC(=O)c2ccnn2C)c(C)c1 [I-11, 1-methyl-N-(2-methyl-4-((o-tolylamino)methyl)phenyl)-1H-pyrazole-5-carboxamide] |
| 500 to 1000 nM | Cc1ccccc1NC(=O)c1ccc(NC(=O)c2ccnn2C)c(C)n1 [I-12, 6-Methyl-5-(1-methyl-1H-pyrazole-5-carboxamido)-N-(o-tolyl)picolinamide] |
| > 1500 nM | Cc1cc(C(=N)Nc2ncccc2C)ccc1NC(=O)c1ccnn1C [I-13] |
| 1000 to 1500 nM | Cc1ccccc1NCc1ccc(NC(=O)c2ccnn2C)c(C)n1 [I-15, 2-Methyl-N-[2-methyl-6-[(2-methylanilino)methyl]-3-pyridyl]pyrazole-3-carboxamide] |
| < 500 nM | Cc1cc(COc2ccccc2C)ccc1NC(=O)c1ccnn1C [I-18, 2-Methyl-N-[2-methyl-4-[(2-methylphenoxy)methyl]phenyl]pyrazole-3-carboxamide] |
| < 500 nM | Cc1cc(/C=C/c2ccccc2)ccc1NC(=O)c1ccnn1C [I-20, 2-Methyl-N-[2-methyl-4-[(E)-styryl]phenyl]pyrazole-3-carboxamide] |
| > 1500 nM | Cc1cc(C2OC2c2ccccc2)ccc1NC(=O)c1ccnn1C (centres unmarked) [I-21] |
| < 500 nM | Cc1cc(C2OC2c2ccccc2C)ccc1NC(=O)c1ccnn1C (centres unmarked) [I-23, 2-Methyl-N-[2-methyl-4-[3-(o-tolyl)oxiran-2-yl]phenyl]pyrazole-3-carboxamide] |
| < 500 nM | Cc1ccccc1/N=N/c1ccc(NC(=O)c2ccnn2C)cc1C [I-24, 2-Methyl-N-[3-methyl-4-[(E)-o-tolylazo]phenyl]pyrazole-3-carboxamide] |
| > 1500 nM | Cc1cc(/N=N/c2ncccc2C)ccc1NC(=O)c1ccnn1C [I-26] |
| < 500 nM | Cc1ccccc1C#Cc1ccc(NC(=O)c2ccnn2C)c(C)c1 [I-29, 2-Methyl-N-[2-methyl-4-[2-(o-tolyl)ethynyl]phenyl]pyrazole-3-carboxamide] |
| > 1500 nM | Cc1cc(-c2ccc3ccccc3c2)ccc1NC(=O)c1ccnn1C [I-32] |
